# Measured values reported in patent US9499554B2, “Anti-influenza compositions and methods” (priority 2013, dated 2016).
# Where two headings read alike, the source gives them in different places. Marks after values point to notes of the source that are not given here.
# Experiments:
# [1] = tested on: MDCK cells; conditions: dog
# [2] = in vivo; conditions: female, Balb/c, mouse, po, 100 mg/kg
# [3] = tested on: influenza virus H3N2 (A/Victoria/3/75); assay: microbe, parasite or virus in culture; assay type: cell-based; conditions: H3N2, MDCK; 72 hrs; read-out: Percent Inhibition of Cytopathic Effect
# [4] = tested on: Parainfluenza 3 14702 (MA-104 cells); assay: organism not typed; assay type: cell-based
# [5] = tested on: A/CA/27/2007 (H1N1); assay: microbe, parasite or virus in culture; assay type: cell-based; conditions: Influenza A virus, H1N1, MDCK, read-out: EC50, antiviral activity in MDCK cells
# [6] = tested on: Influenza A H1N1 CA/04/2009 (Pandemic H1N1); assay: microbe, parasite or virus in culture; assay type: cell-based
# [7] = tested on: MDCK cells; conditions: dog; remark: listed apart in the source
# [8] = tested on: MA-104 cells; conditions: African green monkey
# [9] = tested on: Influenza A H3N2 Brisbane/10/2007; assay: microbe, parasite or virus in culture; assay type: cell-based; conditions: for EC50: Influenza A virus
# [10] = tested on: Influenza B Florida; assay: microbe, parasite or virus in culture; assay type: cell-based
# [11] = tested on: Influenza A H5N1 VN/1203/2004 Hybrid (on H1N1 backbone); assay: microbe, parasite or virus in culture; assay type: cell-based
# [12] = tested on: Influenza A H5N1 VN/1203/2004 Hybrid (on H1N1 backbone); assay: microbe, parasite or virus in culture; assay type: cell-based; remark: listed apart in the source
# [13] = tested on: Parainfluenza 3 14702 (MA-104 cells); assay: organism not typed; assay type: cell-based; remark: listed apart in the source
# [14] = tested on: influenza viruses; assay: organism not typed; assay type: cell-based; conditions: read-out: EC50 values against the influenza viruses as measured by NR assay
# [15] = tested on: Influenza A H1N1 CA/04/2009 (Pandemic H1N1); assay: microbe, parasite or virus in culture; assay type: cell-based; conditions: for EC50: Influenza A virus
# [16] = tested on: MA-104 cells; conditions: African green monkey; remark: listed apart in the source
# [17] = tested on: H3N2 virus (A/Victoria/3/75); set-up: species or system Balb/C mice; conditions: mouse, in vivo, po
# [18] = tested on: Influenza A H3N2 Brisbane/10/2007; assay: microbe, parasite or virus in culture; assay type: cell-based
# [19] = tested on: H3N2 virus (A/Victoria/3/75); set-up: species or system Balb/C mice; conditions: mouse, in vivo
# [20] = tested on: Influenza B Florida; assay: microbe, parasite or virus in culture; assay type: cell-based; conditions: for EC50: Influenza B virus
# [21] = tested on: influenza viruses; assay: organism not typed; assay type: cell-based; conditions: read-out: EC50 values against the influenza viruses by visual assay
# [22] = tested on: A/Vic/3/75 (H3N2); assay: microbe, parasite or virus in culture; assay type: cell-based; conditions: Influenza A virus, H3N2, MDCK, read-out: EC50, antiviral activity in MDCK cells
structure (smiles),measurement,setting,value
"Nc1ncnc2c([C@@H]3N[C@H](CO)[C@@H](O)[C@H]3O)c[nH]c12 [compound 1, (2S,3S,4R,5R)-2-(4-Amino-5H-pyrrolo[3,2-d]pyrimidin-7-yl)-5-(hydroxymethyl)pyrrolidine-3,4-diol]","IC50 (50% cytotoxic dose), Neutral Red Uptake Assay",[1],130 mg/L
same,concentration at 0.17 hr,[2],0.607 ± 0.061 µg/mL
same,concentration at 0.5 hr,[2],0.91 ± 0.122 µg/mL
same,concentration at 1 hr,[2],0.342 ± 0.122 µg/mL
same,concentration at 3 hr,[2],0.0897 ± 0.0085 µg/mL
same,concentration at 5 hr,[2],0.0942 ± 0.0064 µg/mL
same,concentration at 24 hr,[2],0.0505 ± 0.0089 µg/mL
same,inhibition at 1.8 µM,[3],1.6 ± 6.1%
same,inhibition at 7.8 µM,[3],25.8 ± 4.8%
same,"SI, Neutral Red Uptake Assay",[4],52
same,EC50,"[4]; MA104, read-out: EC50, Neutral Red Uptake Assay",10 mg/L
same,EC50,[5],0.66 mg/L
same,"SI, Visual CPE Assay",[6],120
same,EC50,"[6]; Influenza A virus, H1N1, read-out: EC50, Visual CPE Assay",1.8 mg/L
same,"IC50 (50% cytotoxic dose), Visual CPE Assay",[7],>1000 mg/L
same,"IC50 (50% cytotoxic dose), Visual CPE Assay",[8],100 mg/L
same,"SI, Neutral Red Uptake Assay",[9],79
same,EC50,"[9]; H3N2, MDCK, read-out: EC50, antiviral activity in MDCK cells",5.6 mg/L
same,EC50,"[9]; H3N2, read-out: EC50, Neutral Red Uptake Assay",5.6 mg/L
same,"SI, Visual CPE Assay",[10],290
same,EC50,"[10]; Influenza B virus, Influenza B Florida, read-out: EC50, Visual CPE Assay",1.8 mg/L
same,"SI, Neutral Red Uptake Assay",[11],130
same,"SI, Visual CPE Assay",[12],>1600
same,"SI, Visual CPE Assay",[13],7.1
same,EC50,"[13]; MA104, read-out: EC50, Visual CPE Assay",14 mg/L
same,EC50,[14],1.8 to 5.6 mg/L
same,"SI, Neutral Red Uptake Assay",[15],120
same,EC50,"[15]; H1N1, MDCK, read-out: EC50, antiviral activity in MDCK cells",1.8 mg/L
same,EC50,"[15]; H1N1, read-out: EC50, Neutral Red Uptake Assay",1.8 mg/L
same,"IC50 (50% cytotoxic dose), Neutral Red Uptake Assay",[16],52 mg/L
same,effect on survival and weight loss in infected mice,[17],improves the survival and weight loss
same,Mean day to death (Mean ± SEM),[17]; 30 mg/kg/day,>16 days
same,Mean weight change (grams ± SEM) Day 9,[17]; 30 mg/kg/day,−1.58 ± 0.32 grams
same,Survival/Total,[17]; 30 mg/kg/day,10/10*
same,Mean day to death (Mean ± SEM),[17]; 100 mg/kg/day,>16 days
same,Survival/Total,[17]; 100 mg/kg/day,10/10*
same,Mean day to death (Mean ± SEM),[17]; 300 mg/kg/day,>16 days
same,Mean weight change (grams ± SEM) Day 9,[17]; 300 mg/kg/day,0.66 ± 0.23 grams
same,Survival/Total,[17]; 300 mg/kg/day,10/10*
same,"SI, Visual CPE Assay",[18],140
same,EC50,"[18]; Influenza A virus, H3N2, read-out: EC50, Visual CPE Assay",1.8 mg/L
same,Mean day to death (Mean ± SEM),[19],>16 days
same,Survival/Total,[19],10/10*
same,effect on survival and weight loss in infected mice,[19],improves the survival and weight loss
same,"SI, Neutral Red Uptake Assay",[20],38
same,EC50,"[20]; B/Florida, MDCK cells, Table 2, read-out: EC50, antiviral activity in MDCK cells",1.8 mg/L
same,EC50,"[20]; Influenza B Florida, read-out: EC50, Neutral Red Uptake Assay",1.8 mg/L
same,EC50,[21],0.63 to 1.8 mg/L
same,EC50,[22],4 mg/L
